From ChEMBL document CHEMBL4177522, “Effects of new fluorinated analogues of GABA, pregabalin bioisosters, on the ambient level and exocytotic release of [3H]GABA from rat brain nerve terminals” (Bioorg Med Chem, 2017)

How the values were obtained:
[1] = Effect on ambient level of [3H]GABA in Wistar rat synaptosomes assessed as [3H]GABA level at 100 uM preincubated for 20 mins (reference value: 14.20 +/- 1.03%); type: ADME, subcellular, Synaptosome
[2] = Effect on ambient level of [3H]GABA in Wistar rat synaptosomes assessed as [3H]GABA level at 100 uM preincubated for 20 mins in presence of GAT1 specific blocker NO-711 (reference value: 25.07 +/- 2.1%); type: ADME, subcellular, Synaptosome
Rattus norvegicus = organism: Rattus norvegicus; experiment: Decrease in KCl-induced exocytotic release of [3H]GABA in Wistar rat synaptosomes at 100 uM preincubated for 20 mins followed by Kcl addition in Ca2+ containing media measured after 5 mins; type: functional, subcellular; set-up: scale not given: the % may be the effect or the level left
[3] = Induction of plasma membrane depolarization in Wistar rat synaptosomes at 100 uM by rhodamine 6G based spectrofluorimeteric method; type: subcellular, Synaptosome
[4] = Induction of plasma membrane hyperpolarization in Wistar rat synaptosomes at 100 uM by rhodamine 6G based spectrofluorimeteric method; type: subcellular, Synaptosome
[5] = Effect on ambient level of L-[3H]glutamate in Wistar rat synaptosomes assessed as L-[3H]glutamate level at 100 uM preincubated for 20 mins (reference value: 24.68 +/- 1.49%); type: ADME, subcellular, Synaptosome

SMILES | Activity [1] [%] | Activity [2] [%] | Activity (Rattus norvegicus) [%] | Activity [3] | Activity [4] | Activity [5] [%]
CC(C)C[C@H](CN)CC(=O)O [PREGABALIN] | 14.1 | 24.34 | 15 | Non-Toxic | Non-Toxic | 26.2
NCC(CC(=O)O)C(F)(F)C(F)F (racemic) | 14.63 | 26.6 | 33 | Non-Toxic | Non-Toxic | 25.29
NC[C@@H](CC(=O)O)C(F)(F)F | 13.35 | 24.86 | 26 | Non-Toxic | Non-Toxic | 24.75
NC[C@@](O)(CC(=O)O)C(F)(F)F | 15.55 | 27.9 | 35 | Non-Toxic | Non-Toxic | 22.72
